According to patent publication US20140377340A1, “HLA-DR BINDING PEPTIDES AND THEIR USES” (priority 2007, published 2014):
Ends that are not written are not given here.

How the values were obtained:
[1] = biological target: T1, purified HLA DRB1*0401 (Homo sapiens, UniProt P01903+P01911, A100K/A169T/F76Y/I96L/K127E/L162R/M171V/N62H/P40V/Q125Y/R42H/S133A/S149N/S66Y/V115G/V209L/W38E); assay: HLA-DR radioligand binding inhibition assay, DRB1*0401; details: IC50 nM purified HLA DRB1 *0401, purified HLA DRB1*0401
T1 construct: purified from EBV transformed homozygous cell lines or single MHC allele transfected 721.221, C1R, or fibroblast lines; made in house
Procedure: (§1) Instead, wells of an opaque white 96-well Optiplate (Packard) are coated with 3 μg (100 μl@ 30 μg/ml) of HLA-specific antibody (Ab) that “capture” complexes of radiolabeled MHC and unlabeled peptide transferred from the molecular binding assay plate in 100 μl of 0.05% NP40/PBS. After a 3-hour incubation period, the supernatant is decanted and scintillation fluid (Microscint 20) added. Captured complexes are then measured on a microplate scintillation and luminescence counter (TopCount NXTTM; Packard).
(§2) HLA-DR purification. Fifteen distinct HLA-DR molecules were used in quantitative assays to measure the binding of peptides to solubilized HLA-DR molecules. […] Briefly, columns of inactivated Sepharose CL4B and Protein A Sepharose were used as pre-columns. HLA-DR molecules were captured by passage of lysates over LB3.1 monoclonal antibody (anti-HLA-DRA) columns. Antibody columns were washed with 10 mM Tris-HCL, pH8.0 with 1% (v/v) NP-40, followed by PBS containing 0.4% (w/v) n-octylglucoside.
(§3) Briefly, 1-10 nM of radiolabeled peptide was co-incubated for 2 days at either room temperature or 37° C. with 1 μM to 1 nM purified HLA-DR molecules in the presence of a cocktail of protease inhibitors. Assays were performed at various pH conditions, ranging from pH 4 to pH 7. […] After incubation, the percentage of HLA-DR-bound radioactivity is determined by capturing HLA-DR/peptide complexes on Optiplates (Packard Instruments, Meriden, Conn.) coated with the LB3.1 antibody and determining bound counts per minute using the TopCount microscintillation counter (Packard Instruments).

[2] = biological target: T2, purified HLA DRB1*0701 (Homo sapiens, UniProt P01903+P01911, A100R/A102G/A103Q/D57E/D86V/E43K/F76Y/K127E/L162R/M171V/P40G/Q125H/Q99D/R33Q/R42Y/R54Q/S133A/S66F/T210M/V115G/Y107V/Y59L/Y89S); assay: HLA-DR radioligand binding inhibition assay, DRB1*0701; details: IC50 nM purified HLA DRB1 *0701, purified HLA DRB1*0701
T2 construct: purified from EBV transformed homozygous cell lines or single MHC allele transfected 721.221, C1R, or fibroblast lines; made in house
Procedure: as §1, §2, §3

[3] = biological target: T3, purified HLA DRB1*1302 (Homo sapiens, UniProt P01903+P01911, A100E/A169T/K41T/L162R/M171V/P40S/Q125H/Q178H/Q39Y/Q99D/R42S/S66N/T262R/V115G/W38E/Y61H); assay: HLA-DR radioligand binding inhibition assay, DRB1*1302
T3 construct: purified from EBV transformed homozygous cell lines or single MHC allele transfected 721.221, C1R, or fibroblast lines; made in house
Procedure: as §1, §2, §3

[4] = biological target: T4, purified HLA DRB1*1101 (Homo sapiens, UniProt P01903+P01911, A100R/A169T/A87E/I96F/K41T/L162R/M171V/P40S/Q125H/Q178H/Q39Y/Q99D/R42S/S66Y/T262R/V115G/W38E); assay: HLA-DR radioligand binding inhibition assay, DRB1*1101; details: IC50 nM purified HLA DRB1 *1101, purified HLA DRB1*1101
T4 construct: purified from EBV transformed homozygous cell lines or single MHC allele transfected 721.221, C1R, or fibroblast lines; made in house
T4 sequence (P01903 26-254, other chains not shown): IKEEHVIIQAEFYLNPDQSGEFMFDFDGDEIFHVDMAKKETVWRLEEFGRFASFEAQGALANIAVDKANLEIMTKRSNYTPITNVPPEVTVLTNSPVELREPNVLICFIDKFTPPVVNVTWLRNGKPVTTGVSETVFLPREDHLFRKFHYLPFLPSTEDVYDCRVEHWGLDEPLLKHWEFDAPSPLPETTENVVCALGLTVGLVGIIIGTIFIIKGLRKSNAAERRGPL
Procedure: as §1, §2, §3

[5] = biological target: T5, purified HLA DRB1*0101 (Homo sapiens, UniProt P01903+P01911, A100R/D57E/F55L/F60I/F76Y/I96L/L162R/M171V/P40L/Q125E/R42F/V115G/Y59C); assay: HLA-DR radioligand binding inhibition assay, DRB1*0101; details: IC50 nM purified HLA DRB1 *0101, purified HLA DRB1*0101
T5 construct: purified from EBV transformed homozygous cell lines or single MHC allele transfected 721.221, C1R, or fibroblast lines; made in house
Procedure: as §1, §2, §3

[6] = biological target: T6, purified HLA DRB1*0405 (Homo sapiens, UniProt P01903+P01911, A100R/A169T/D86S/F76Y/I96L/K127E/L162R/M171V/N62H/P40V/Q125Y/R42H/S133A/S149N/S66Y/V115G/V209L/W38E); assay: HLA-DR radioligand binding inhibition assay, DRB1*0405; details: IC50 nM purified HLA DRB1 *0405, purified HLA DRB1*0405
T6 construct: purified from EBV transformed homozygous cell lines or single MHC allele transfected 721.221, C1R, or fibroblast lines; made in house
Procedure: as §1, §2, §3

| Compound | IC50 [1] [nM] | IC50 [2] [nM] | IC50 [3] [nM] | IC50 [4] [nM] | IC50 [5] [nM] | IC50 [6] [nM] |
| --- | --- | --- | --- | --- | --- | --- |
| CC(C)C[C@H](NC(=O)[C@H](CC(N)=O)NC(=O)CNC(=O)[C@H](CCC(N)=O)NC(=O)[C@@H](NC(=O)[C@@H](NC(=O)[C@H](CCC(N)=O)NC(=O)[C@H](CS)NC(=O)CNC(=O)[C@H](CCC(N)=O)NC(=O)[C@H](Cc1ccc(O)cc1)NC(=O)[C@H](CC(C)C)NC(=O)[C@H](Cc1c[nH]cn1)NC(=O)[C@@H](N)CCCNC(=N)N)C(C)C)C(C)C)C(=O)N[C@@H](CCC(=O)O)C(=O)O [Peptide 9019.0028] | 422 | 4950 | 5040 |  |  |  |
| CC[C@H](C)[C@H](NC(=O)[C@H](CCCNC(=N)N)NC(=O)[C@@H](N)CCSC)C(=O)N[C@@H](CC(C)C)C(=O)N[C@@H](CCCCN)C(=O)N[C@@H](CCC(=O)O)C(=O)N[C@H](C(=O)N[C@@H](CCC(=O)O)C(=O)N[C@@H](CC(C)C)C(=O)N[C@@H](CCCNC(=N)N)C(=O)N[C@@H](CCCCN)C(=O)N[C@H](C(=O)N[C@@H](CCCCN)C(=O)N[C@H](C(=O)N[C@@H](CC(C)C)C(=O)O)C(C)C)C(C)C)[C@@H](C)O [Peptide 9019.0072] |  |  |  | 2130 |  |  |
| CSCC[C@H](NC(=O)[C@H](C)NC(=O)[C@H](CCCNC(=N)N)NC(=O)[C@H](CC(C)C)NC(=O)[C@@H](NC(=O)[C@H](CCCNC(=N)N)NC(=O)[C@H](CC(=O)O)NC(=O)[C@H](CC(N)=O)NC(=O)[C@H](CC(C)C)NC(=O)[C@H](CC(C)C)NC(=O)[C@H](CC(N)=O)NC(=O)[C@H](C)NC(=O)[C@@H](N)CC(=O)O)C(C)C)C(=O)N[C@@H](CC(C)C)C(=O)N[C@@H](CCCCN)C(=O)O [Peptide 9019.0146] |  | > 20000 | 286 |  | 1460 |  |
| CC[C@H](C)[C@H](NC(=O)[C@@H](NC(=O)[C@@H]1CCCN1C(=O)[C@H](C)N)[C@@H](C)O)C(=O)N[C@@H](CO)C(=O)N1CCC[C@H]1C(=O)N[C@@H](CC(C)C)C(=O)N[C@@H](CC(N)=O)C(=O)N[C@H](C(=O)N[C@@H](CO)C(=O)N[C@@H](Cc1ccc(O)cc1)C(=O)N[C@@H](CCCNC(=N)N)C(=O)N[C@@H](CO)C(=O)NCC(=O)N[C@@H](CCC(=O)O)C(=O)O)[C@@H](C)O [Peptide 9019.0121] | 295 |  | 125 |  | 2430 | 5990 |
| CC[C@H](C)[C@H](NC(=O)[C@H](CCCNC(=N)N)NC(=O)[C@H](CC(C)C)NC(=O)[C@H](CCCNC(=N)N)NC(=O)[C@H](CCC(N)=O)NC(=O)[C@H](CC(C)C)NC(=O)[C@@H]1CCCN1C(=O)[C@@H](NC(=O)[C@H](CCC(N)=O)NC(=O)[C@H](CCCNC(=N)N)NC(=O)[C@@H](N)C(C)C)C(C)C)C(=O)N[C@H](C(=O)N[C@@H](CCCNC(=N)N)C(=O)NCC(=O)N[C@H](C(=O)O)[C@@H](C)O)C(C)C [Peptide 9019.0035] | 1800 |  | 2540 |  |  |  |
| TMNMLGGGGSAGRKP [Peptide 9019.0184] | 791 | 6180 | 5690 |  |  |  |
| CSCC[C@H](NC(=O)CNC(=O)[C@H](CC(C)C)NC(=O)[C@H](CC(=O)O)NC(=O)CNC(=O)[C@@H](N)CC(=O)O)C(=O)NCC(=O)N[C@@H](C)C(=O)N[C@@H](C)C(=O)N[C@@H](CCCCN)C(=O)NCC(=O)N[C@@H](CC(C)C)C(=O)N[C@@H](CCC(N)=O)C(=O)N[C@@H](CO)C(=O)N[C@@H](CC(C)C)C(=O)O [Peptide 9019.0097] |  |  | 3230 |  | 110 | 5800 |
| CC(C)C[C@H](NC(=O)[C@H](CC(N)=O)NC(=O)CNC(=O)[C@H](CCC(N)=O)NC(=O)[C@@H](NC(=O)[C@@H](NC(=O)[C@H](CCC(N)=O)NC(=O)[C@H](CS)NC(=O)CN)C(C)C)C(C)C)C(=O)N[C@@H](CCC(=O)O)C(=O)N[C@@H](CC(C)C)C(=O)N[C@H](C(=O)N[C@@H](Cc1ccc(O)cc1)C(=O)N[C@@H](CC(C)C)C(=O)N1CCC[C@H]1C(=O)O)[C@@H](C)O [Peptide 9019.0029] | 2740 |  | 417 |  | 2600 |  |
| ELPLQALVMGEGTCE [Peptide 9019.0182] | 6780 | 15600 | 9170 |  | 1500 |  |
| CC[C@H](C)[C@H](NC(=O)[C@H](CCCCN)NC(=O)[C@H](CCCNC(=N)N)NC(=O)[C@H](CCSC)NC(=O)[C@H](CO)NC(=O)[C@@H]1CCCN1C(=O)[C@H](CC(C)C)NC(=O)[C@@H](NC(=O)[C@H](CCC(=O)O)NC(=O)[C@H](CCCCN)NC(=O)[C@H](CCC(N)=O)NC(=O)[C@@H](NC(=O)[C@H](CS)NC(=O)[C@H](CCCCN)NC(=O)[C@@H](N)Cc1ccccc1)C(C)C)C(C)C)C(=O)O [Peptide 9019.0149] |  |  | 1590 |  | 4100 |  |
| CC(C)C[C@H](NC(=O)[C@H](CCCCN)NC(=O)[C@H](CCCCN)NC(=O)[C@@H]1CCCN1C(=O)[C@@H](N)CCC(=O)O)C(=O)N[C@@H](CCCNC(=N)N)C(=O)N1CCC[C@H]1C(=O)N1CCC[C@H]1C(=O)N1CCC[C@H]1C(=O)N[C@@H](C)C(=O)N[C@@H](CCCNC(=N)N)C(=O)N[C@H](C(=O)N1CCC[C@H]1C(=O)N[C@@H](CS)C(=O)N[C@@H](CCC(N)=O)C(=O)O)[C@@H](C)O [Peptide 9019.0188] | 806 |  | 1210 |  |  |  |
| CC[C@H](C)[C@H](NC(=O)[C@H](CC(C)C)NC(=O)[C@H](C)NC(=O)[C@H](CC(C)C)NC(=O)CN)C(=O)N[C@@H](Cc1c[nH]cn1)C(=O)N[C@@H](Cc1c[nH]cn1)C(=O)N[C@@H](CC(N)=O)C(=O)N[C@H](C(=O)N[C@@H](Cc1c[nH]cn1)C(=O)N[C@@H](CC(C)C)C(=O)N[C@@H](CS)C(=O)N[C@@H](Cc1ccccc1)C(=O)N[C@H](C(=O)N[C@@H](Cc1c[nH]cn1)C(=O)O)C(C)C)[C@@H](C)O [Peptide 9019.0058] | 414 |  | 18 | 2800 |  |  |
| CC[C@H](C)[C@H](NC(=O)[C@H](Cc1ccccc1)NC(=O)[C@H](CC(=O)O)NC(=O)[C@H](Cc1c[nH]cn1)NC(=O)[C@@H]1CCCN1)C(=O)N[C@@H](CCC(=O)O)C(=O)N[C@@H](Cc1c[nH]cn1)C(=O)N[C@@H](Cc1ccccc1)C(=O)N[C@@H](CC(C)C)C(=O)N[C@@H](CO)C(=O)N[C@@H](CCCCN)C(=O)N[C@@H](CCSC)C(=O)N1CCC[C@H]1C(=O)N[C@@H](CCC(=O)O)C(=O)N[C@@H](C)C(=O)O [Peptide 9019.0166] | 1300 |  | 820 |  |  |  |
| PDSLPDLSVFQNLQV [Peptide 9019.0051] | > 20000 | > 20000 | > 20000 |  | > 20000 |  |
| LPRVGCPALPLPPPP [Peptide 9019.0173] | 6540 | > 20000 | 8940 |  | 1910 |  |
